Experimental data as given in paper PMC10870435, “A novel complement C3 inhibitor CP40-KK protects against experimental pulmonary arterial hypertension via an inflammasome NLRP3 associated pathway” (Journal of Translational Medicine, 2024).
Bridge positions count the residues as written; N and C are the ends. Square brackets hold non-standard residues; d marks the D form. Peptide text beside a SMILES is read from it. Trp(1-Me) = Cn1cc(C[C@H](N)C(=O)O)c2ccccc21; NMeI = CC[C@H](C)[C@H](NC)C(=O)O; Sar = CNCC(=O)O

Assays:
[1] = tested on: pulmonary vascular remodeling markers (α-SMA, PCNA); test: Lung α-SMA immunohistochemistry and PCNA western blot in PAH rats; assay type: in vivo, rat; conditions: MCT + CP40-KK vs MCT group
Description: (§1) In the current study, two animal experiments were conducted successively. 30 rats were randomly divided into two groups (control group and MCT group, n = 15 per group) in the first experiment. MCT group rats received a single intraperitoneally injection of MCT (40 mg/kg) on day 1 to induce PAH while control group rats received an equivoluminal saline injection intraperitoneally. For the second animal experiment, the rats were assigned into four groups (control group, MCT group, CP40-KK group, and MCT + CP40-KK group, n = 15 per group). […]
After hemodynamic measurements, the lungs were perfused with cold phosphate-buffered saline (PBS) and fixed in 4% formaldehyde for 24 h. […] Immunolabels were detected with 3, 3-Diaminobenzidine (DAB), after which the nuclei were counterstained with hematoxylin. […] For quantification analysis, the mean integrated optical density (IOD) for immunohistochemistry was determined using Image J software (National Institutes of Health, Bethesda, MD).
Proteins were collected from the fresh frozen-rat lung tissues using RIPA lysis buffer. Protein concentration was quantified using a BCA reagent. […] To compare and quantify levels of proteins, the density of each band was measured using Image J software. Equal loading for total cell or tissue lysates was determined by β-Actin western blot.

[2] = cited from earlier work
Text: The selective C3 inhibitor CP40 has been found therapeutically effective in various diseases, but has yet not been tested in the PAH model. In the current study, we applied the newly identified CP40 analog, CP40-KK, with two more lysine attached to the C terminus, in the MCT-induced PAH rat model.

complement C3 = conditions: cited from earlier work
[3] = tested on: rat complement C3 function; test: CH50 test ex vivo, plasma of PAH experiment groups; assay type: in vivo; conditions: 2 mg/kg s.c. day 15 to day 28
Description: as §1
The total functional complement was determined with a CH50 assay based on the modified method of Mayer. […] The OD values of supernatant liquid in the ten tubes were measured at 541 nm and compared with that of the 50% haemolytic standard tube to get the most similar value. The total haemolytic complement (CH50) = dilution ratio / the quantity of plasma needed to induce 50% lysis of sheep erythrocytes.
Plasma samples for biological assays from rats were centrifuged and stored at -80°C until used, and the total functional complement was determined with a CH50 assay based on the modified method of Mayer. This assay involves determining the quantity of plasma needed to induce 50% lysis of sheep erythrocytes sensitized with antibody anti-sheep erythrocytes. […]

Tail bleeding time = assay type: in vivo, rat; conditions: rats, after 2 weeks of treatment
C3b = conditions: cited from earlier work

For CC[C@H](C)[C@H](NC(=O)[C@H](N)Cc1ccc(O)cc1)C(=O)N[C@H]1CSSC[C@@H](C(=O)N(C)[C@H](C(=O)N[C@@H](CCCCN)C(=O)N[C@@H](CCCCN)C(N)=O)[C@@H](C)CC)NC(=O)[C@H](CCCNC(=N)N)NC(=O)[C@H](Cc2c[nH]cn2)NC(=O)CN(C)C(=O)[C@H](Cc2c[nH]c3ccccc23)NC(=O)[C@H](CC(=O)O)NC(=O)[C@H](CCC(N)=O)NC(=O)[C@H](Cc2cn(C)c3ccccc23)NC(=O)[C@H](C(C)C)NC1=O [CP40-KK] (H-[dY]ICV[Trp(1-Me)]QDW[Sar]HRC[NMeI]KK-NH2; disulfide 3-12 (inferred)), the “expression of α-SMA in walls of small pulmonary arteries” value ([1]; immunohistochemistry) is listed as “reduced significantly”, the “PCNA expression in lung homogenates” value ([1]; western blot, n = 6 per group) is listed as “decreased” and the “improvement in solubility in comparison with parental peptide CP40” value ([2]; at physiological pH) is listed as > 200 fold. The “apparent clearance compared to CP40 (decreased)” value ([2]; non-human primates) was ~2.6 fold, the “maximum concentration compared to CP40 (higher)” value ([2]; non-human primates) was “twofold” and the “terminal half-life compared to CP40 (higher)” value ([2]; non-human primates) was “fivefold”. The “inhibitory potency relative to CP40” value (complement C3) was “retaining its inhibitory potency”, the “CH50 value ex vivo, MCT + CP40-KK vs MCT group” value [3] was “could reverse it” and the tail bleeding time (Tail bleeding time) was “significantly prolong”. The “binding affinity for C3b relative to CP40” value (C3b) was “increase the binding affinity for C3b”.
